Measured values published in patent US20250360120A1, “METHODS OF TREATMENT OF DRAVET SYNDROME” (Noema Pharma AG, priority 2023, published 2025).

System: Scn1a+/− mice
Test: Seizure frequency, seizure freedom and time to first seizure (frontal cortex EEG) in Scn1a+/− mice
Format: in vivo
Settings: for Odds Ratio of seizure freedom (vs Untreated) / Probability of seizure freedom: GLM binomial; for median time to first seizure: Kaplan-Meier, Untreated group 7 days
Procedure: Heterozygous deletion of Sca1a in mice (Scn1a+/−) recapitulates several core phenotypes of clinical Dravet syndrome, including temperature-dependent and spontaneous seizures, SUDEP, and behavioral abnormalities. […] As such, Scn1a+/−mice are a favourable model to enable translation of novel ASMs with varied mechanism of action to the clinic.
The experiment was conducted to evaluate the effect of Compound I, CTEP and RO6807794 on seizure frequency, seizure freedom and survival in Scn1a+/− mice.
Frontal cortex recordings were selected as representative of the seizure phenomenology on mice experiencing generalized seizures. EEG headmounts were implanted between P20-22 and recordings were initiated for continuous monitoring for a period of approximately 14-days for the NAM group and PAM group. Individual frontal cortex seizure measurements over time were visually explored and summaries across the time course were calculated. • 1. Seizure frequency
Seizure frequency was measured by count of the number of seizures observed each day. The frequency was analyzed using a Chi-square test (all treatments) and Fisher's Exact test (pairwise treatment comparisons). • 2. Seizure freedom
Seizure freedom was measured with a binary (0 or 1) endpoint, where it was recorded as a […] was recorded across the whole study. Seizure freedom was summarized across all animals into a contingency table and analyzed using a generalized linear model (GLM) with a binomial distribution for the errors and a logit link function. The results were presented as probabilities and odds ratios between groups and 95% confidence intervals. The odd ratio described how much more likely it is for an animal to have no seizures (Seizure freedom=1) in a treated group compared to the untreated group. Analyses were performed using GraphPad Prism 9 (contingency table) and SAS 9.4 (binomial model). • 3. Time to first seizure:
Time to first seizure refers the time recorded as the day on which the first seizure occurred (an observed, uncensored observation), or the final day of recording for that animal if on seizure was observed (a censored observation). Time to first seizure was visualized using a Kaplan-Meier plot and analyzed using a Log-rank (Mantel-Cox) test. Analyses were performed using GraphPad Prism 9. • 4. Total seizure burden
Total seizure burden is sum of the seizure frequency across all study days. • 5. Seizure per day
Seizure per day is measured by the total seizure count divided by the number of study days, wherein a seizure count measurement was adjusted by the number of days the animal was in the study.
Time to first seizure and Seizure per day were explored visually and analyzed using analysis of variance (ANOVA). Results were presented as geometric means, ratios of geometric means, confidence intervals and p-values. An additional non-parametric analysis, Kruskal-Wallis, was explored along with Wilcoxon pairwise comparisons to the Untreated group. The data was also analyzed using a generalized linear model (GLM) with a Poisson distribution for the errors and a log link function. The linear predictor described a model suitable for exploring a fixed effect of treatment group.

[1] = 0.3 mg/kg PO once daily for 28-days from P10
[2] = 1 mg/kg PO once daily for 28-days from P10
[3] = ANOVA on log10 adjusted scale, 0.3 mg/kg PO once daily for 28-days from P10
[4] = ANOVA on log10 adjusted scale, 1 mg/kg PO once daily for 28-days from P10
[5] = Generalized Linear Model on discrete (count) data, 0.3 mg/kg PO once daily for 28-days from P10
[6] = Generalized Linear Model on discrete (count) data, 1 mg/kg PO once daily for 28-days from P10
[7] = Kruskal-Wallis with Wilcoxon pairwise tests, 1 mg/kg PO once daily for 28-days from P10
[8] = exploratory ANOVA on log10 scale, 0.3 mg/kg PO once daily for 28-days from P10
[9] = exploratory ANOVA on log10 scale, 1 mg/kg PO once daily for 28-days from P10
[10] = 0.3 mg/kg PO every other day for 28-days
[11] = ANOVA on log10 adjusted scale, 0.3 mg/kg PO every other day for 28-days
[12] = Generalized Linear Model on discrete (count) data, 0.3 mg/kg PO every other day for 28-days
[13] = Kruskal-Wallis with Wilcoxon pairwise tests, 0.3 mg/kg PO every other day for 28-days
[14] = exploratory ANOVA on log10 scale, 0.3 mg/kg PO every other day for 28-days
[15] = ANOVA on log10 adjusted scale, 0.3 mg/kg IP once daily for 5-days from P21
[16] = Generalized Linear Model on discrete (count) data, 0.3 mg/kg IP once daily for 5-days from P21

## Cc1nc(C#Cc2ccnc(Cl)c2)c(C)n1-c1ccc(F)cc1 [Compound I, 2-chloro-4-[1-(4-fluorophenyl)-2,5-dimethyl-1H-imidazol-4-ylethynyl]pyridine]
[1]
  Frequency of animals with At least 1 Seizure: 10
  Frequency of animals with No Seizures (seizure freedom): 1
  Percent of animals with At least 1 Seizure: 90.9%
  Percent of animals with No Seizures (seizure freedom): 9.1%
  Odds Ratio of seizure freedom (vs Untreated): 0.3
  Probability of seizure freedom: 0.09
  median time to first seizure: 2 days
[2]
  Frequency of animals with At least 1 Seizure: 3
  Frequency of animals with No Seizures (seizure freedom): 10
  Percent of animals with At least 1 Seizure: 23.1%
  Percent of animals with No Seizures (seizure freedom): 76.9%
  animals with Seizure Freedom over time (Kaplan-Meier, in words): more animals with Seizure Freedom for a longer duration
  Odds Ratio of seizure freedom (vs Untreated): 10
  Probability of seizure freedom: 0.77
1 mg/kg PO once daily for 28-days from P10, 25% in the Untreated group
  chance of seizure freedom: 77%
[3]
  Seizure per day, % Change compared to untreated group: 183.96%
  Seizure per day, Geometric Mean: 0.349
  Seizure per day, Ratio of Means compared to untreated group: 2.84
[4]
  Seizure per day, % Change compared to untreated group: −84.81%
  Seizure per day, Geometric Mean: 0.019
  Seizure per day, Ratio of Means compared to untreated group: 0.15
  reduction of average seizure per day compared to the Untreated group: 79%
GLM on discrete (count) data, 1 mg/kg PO once daily for 28-days from P10
  reduction of total seizure burden compared to the Untreated group: 44%
[5]
  Seizure per day, % Change vs Untreated: 85.38%
  Seizure per day, Geometric Mean: 0.910
  Seizure per day, Ratio of Means vs Untreated: 1.85
  Total Seizure Burden, % Change vs Untreated: 87.21%
  Total Seizure Burden, Geometric Mean: 12.64
  Total Seizure Burden, Ratio of Means vs Untreated: 1.87
[6]
  Seizure per day, % Change vs Untreated: −46.32%
  Seizure per day, Geometric Mean: 0.263
  Seizure per day, Ratio of Means vs Untreated: 0.54
  Total Seizure Burden, % Change vs Untreated: −44.16%
  Total Seizure Burden, Geometric Mean: 3.77
  Total Seizure Burden, Ratio of Means vs Untreated: 0.56
[7]
  seizure per day rates compared to the Untreated group (in words): decreased seizure per day rates
  total seizure burden compared to the Untreated group (in words): lower total seizure burden
[8]
  Total Seizure Burden, % Change compared to Untreated group: 136.21%
  Total Seizure Burden, Geometric Mean: 4.16
  Total Seizure Burden, Ratio of Means compared to Untreated group: 2.36
[9]
  Total Seizure Burden, % Change compared to Untreated group: −84.25%
  Total Seizure Burden, Geometric Mean: 0.28
  Total Seizure Burden, Ratio of Means compared to Untreated group: 0.16
  reduction of total seizure burden compared to the Untreated group: 84%

## Cc1nc(C#Cc2ccnc(Cl)c2)c(C)n1-c1ccc(OC(F)(F)F)cc1 [CTEP, reference compound]
[10]
  Frequency of animals with At least 1 Seizure: 4
  Frequency of animals with No Seizures (seizure freedom): 11
  Percent of animals with At least 1 Seizure: 26.7%
  Percent of animals with No Seizures (seizure freedom): 73.3%
  animals with Seizure Freedom over time (Kaplan-Meier, in words): more animals with Seizure Freedom for a longer duration
  Odds Ratio of seizure freedom (vs Untreated): 8.25
  Probability of seizure freedom: 0.73
[11]
  Seizure per day, % Change compared to untreated group: −79.05%
  Seizure per day, Geometric Mean: 0.026
  Seizure per day, Ratio of Means compared to untreated group: 0.21
  reduction of average seizure per day compared to the Untreated group: 85%
GLM on discrete (count) data, 0.3 mg/kg PO every other day for 28-days
  reduction of total seizure burden compared to the Untreated group: 62%
[12]
  Seizure per day, % Change vs Untreated: −23.56%
  Seizure per day, Geometric Mean: 0.375
  Seizure per day, Ratio of Means vs Untreated: 0.76
  Total Seizure Burden, % Change vs Untreated: −62.47%
  Total Seizure Burden, Geometric Mean: 2.53
  Total Seizure Burden, Ratio of Means vs Untreated: 0.38
[13]
  seizure per day rates compared to the Untreated group (in words): decreased seizure per day rates
  total seizure burden compared to the Untreated group (in words): lower total seizure burden
[14]
  Total Seizure Burden, % Change compared to Untreated group: −82.08%
  Total Seizure Burden, Geometric Mean: 0.32
  Total Seizure Burden, Ratio of Means compared to Untreated group: 0.18
  reduction of total seizure burden compared to the Untreated group: 82%

## CN(C(=O)c1ncc(C#Cc2cccc(F)c2)cn1)C(C)(C)C [RO6807794, reference compound]
[15]
  Seizure per day, % Change compared to untreated group: 751.1%
  Seizure per day, Geometric Mean: 1.046
  Seizure per day, Ratio of Means compared to untreated group: 8.51
GLM on discrete (count) data, 0.3 mg/kg IP once daily for 5-days from P21
  seizure per day rates compared to the Untreated group (in words): statistically significantly increased seizure per day rates
[16]
  Seizure per day, % Change vs Untreated: 407.47%
  Seizure per day, Geometric Mean: 2.490
  Seizure per day, Ratio of Means vs Untreated: 5.07
0.3 mg/kg IP once daily for 5-days from P21
  median time to first seizure: 3 days
Kruskal-Wallis with Wilcoxon pairwise tests, 0.3 mg/kg IP once daily for 5-days from P21
  seizure per day rates compared to the Untreated group (in words): increased seizure per day rates
